In patent publication US20040014779A1, “Methods and compositions related to IRM compounds and toll-like recptor pathways” (3M Innovative Properties Company, priority 2001, published 2004):

Experiments:
[1] = molecular target: T1, TLR6 (Mus musculus, UniProt Q9EPW9, P680H); experiment: TNF-α production by RAW 264.7 cells transfected with TLR6DN; assay type: cell-based
T1 construct: expressed in transfected cells; host or cells: RAW 264.7 (pIRES vector)
Excerpt: A murine TLR6 dominant negative construct was generated by PCR mutation during amplification from RAW 264.7 cell cDNA. The 5′ and 3′ regions flanking a codon encoding proline 691 were amplified with primers (5′ sense: SEQ ID NO 1; 5′ antisense: SEQ ID NO 2; 3′sense: SEQ ID NO 3; 3′ antisense: SEQ ID NO 4) that changed the codon for proline 691 to a codon encoding histidine while introducing a unique Apa LI restriction enzyme site at the position of the mutation. The 5′ and 3′ sections of the TLR6 were amplified by Pfu Turbo DNA polymerase kit (Stratagene, La Jolla, Calif.). The PCR sections were inserted into pCR-Blunt II-TOPO for sequence verification. The two sections were joined together when subcloned into pIRES (Clontech, Palo Alto, Calif.) for expression in mammalian cells.
RAW 264.7 cells were co-transfected with a truncated human CD4 for RAW 264.7 cells in a 4:1 ratio of TLR plasmid to CD4 plasmid. Transfection of RAW 264.7 cells was carried out using the transfection reagent DoTaP (Roche Diagnostics Corp., Indianapolis, Ind.) according to the manufacturer's specifications. […]
TNF-α levels were measured with a commercial Human TNF-α ELISA kit (Biosource International, Inc., Camarillo, Calif.) according to the manufacturer's specifications. […]

[2] = molecular target: T2, TLR7 (Mus musculus, UniProt P58681); experiment: IRM-stimulated TNF-α production by RAW 264.7 cells overexpressing TLR7; assay type: cell-based, murine
T2 construct: expressed in transfected cells; host or cells: RAW 264.7 (pIRES vector)
T2 sequence (P58681 27-1050): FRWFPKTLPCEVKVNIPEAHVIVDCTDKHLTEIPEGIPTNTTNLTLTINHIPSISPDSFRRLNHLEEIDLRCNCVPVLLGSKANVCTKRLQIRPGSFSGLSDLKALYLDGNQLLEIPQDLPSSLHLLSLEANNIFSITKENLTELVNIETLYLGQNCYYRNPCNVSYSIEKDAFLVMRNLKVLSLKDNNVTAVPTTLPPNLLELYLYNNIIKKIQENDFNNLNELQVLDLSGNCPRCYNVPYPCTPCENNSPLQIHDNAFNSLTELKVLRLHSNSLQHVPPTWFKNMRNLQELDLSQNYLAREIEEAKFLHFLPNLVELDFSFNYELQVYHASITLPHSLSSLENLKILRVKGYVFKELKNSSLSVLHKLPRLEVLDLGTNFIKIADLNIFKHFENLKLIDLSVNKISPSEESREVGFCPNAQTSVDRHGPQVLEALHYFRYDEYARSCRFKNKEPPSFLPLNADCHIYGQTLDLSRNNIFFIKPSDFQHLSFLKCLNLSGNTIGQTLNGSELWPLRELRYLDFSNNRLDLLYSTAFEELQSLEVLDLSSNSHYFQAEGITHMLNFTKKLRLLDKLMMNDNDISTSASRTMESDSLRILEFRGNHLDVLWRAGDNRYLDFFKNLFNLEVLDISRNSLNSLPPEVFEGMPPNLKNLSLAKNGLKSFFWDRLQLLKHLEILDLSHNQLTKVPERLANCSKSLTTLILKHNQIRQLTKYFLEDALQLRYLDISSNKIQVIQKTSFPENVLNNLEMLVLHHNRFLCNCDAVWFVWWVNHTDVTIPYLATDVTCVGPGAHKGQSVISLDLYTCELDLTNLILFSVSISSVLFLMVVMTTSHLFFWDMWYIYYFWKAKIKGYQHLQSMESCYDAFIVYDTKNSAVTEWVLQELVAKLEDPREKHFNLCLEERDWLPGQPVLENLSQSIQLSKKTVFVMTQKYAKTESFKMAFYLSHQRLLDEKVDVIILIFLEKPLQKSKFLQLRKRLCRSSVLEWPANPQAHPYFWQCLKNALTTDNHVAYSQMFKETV
Excerpt: The murine TLR wild-type vectors were generated by PCR amplification from RAW 264.7 cell cDNA with TLR6 specific primers (sense primer: SEQ ID NO 13; antisense primer: SEQ ID NO 14) or TLR7 specific primers (sense primer: SEQ ID NO 15; antisense primer: SEQ ID NO 16) by Pfu Turbo DNA polymerase kit (Stratagene, La Jolla, Calif.). The PCR products were inserted into pCR-Blunt II-TOPO for sequence verification and then subcloned into pIRES (BD Biosciences Clontech, Palo Alto, Calif.) for expression in mammalian cells.
THP-1 cells or RAW 264.7 cells were cultured and transfected with the wild type TLR 6 or wild type TLR 7 plasmids described above. The transfections were performed as in Example 1 with a 4:1 ratio of wild-type TLR to H2K plasmid (THP-1 cells) or CD4 (RAW 264.7 cells).
RAW 264.7 cells were stimulated with various concentrations of resiquimod and analyzed as described in Example 1. Results are provided in Table 4 and are expressed as fold increase in TNF-α production as compared to control transfected RAW 264.7 cells.

T1 sequence (Q9EPW9 28-795 P680H): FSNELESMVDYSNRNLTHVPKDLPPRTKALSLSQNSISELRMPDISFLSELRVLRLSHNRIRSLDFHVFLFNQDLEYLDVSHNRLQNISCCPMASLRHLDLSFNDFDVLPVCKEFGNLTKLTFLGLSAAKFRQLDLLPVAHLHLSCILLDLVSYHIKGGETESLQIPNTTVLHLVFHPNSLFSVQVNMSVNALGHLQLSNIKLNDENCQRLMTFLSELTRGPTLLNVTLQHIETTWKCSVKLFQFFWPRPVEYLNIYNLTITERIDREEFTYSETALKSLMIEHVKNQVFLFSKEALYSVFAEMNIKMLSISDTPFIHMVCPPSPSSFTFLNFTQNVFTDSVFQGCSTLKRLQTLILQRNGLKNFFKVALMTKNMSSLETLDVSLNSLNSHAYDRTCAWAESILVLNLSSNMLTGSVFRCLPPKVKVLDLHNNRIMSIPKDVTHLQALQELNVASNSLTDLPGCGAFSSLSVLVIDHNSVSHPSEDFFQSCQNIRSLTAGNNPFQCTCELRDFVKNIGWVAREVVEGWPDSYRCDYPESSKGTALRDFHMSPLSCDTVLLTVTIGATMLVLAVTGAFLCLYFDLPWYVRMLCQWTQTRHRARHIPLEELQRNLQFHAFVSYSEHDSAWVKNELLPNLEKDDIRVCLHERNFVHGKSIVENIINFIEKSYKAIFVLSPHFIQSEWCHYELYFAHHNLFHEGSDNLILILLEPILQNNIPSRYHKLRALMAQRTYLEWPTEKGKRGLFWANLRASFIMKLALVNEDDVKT
T1 sequence (Q9QUN7 25-784 partner): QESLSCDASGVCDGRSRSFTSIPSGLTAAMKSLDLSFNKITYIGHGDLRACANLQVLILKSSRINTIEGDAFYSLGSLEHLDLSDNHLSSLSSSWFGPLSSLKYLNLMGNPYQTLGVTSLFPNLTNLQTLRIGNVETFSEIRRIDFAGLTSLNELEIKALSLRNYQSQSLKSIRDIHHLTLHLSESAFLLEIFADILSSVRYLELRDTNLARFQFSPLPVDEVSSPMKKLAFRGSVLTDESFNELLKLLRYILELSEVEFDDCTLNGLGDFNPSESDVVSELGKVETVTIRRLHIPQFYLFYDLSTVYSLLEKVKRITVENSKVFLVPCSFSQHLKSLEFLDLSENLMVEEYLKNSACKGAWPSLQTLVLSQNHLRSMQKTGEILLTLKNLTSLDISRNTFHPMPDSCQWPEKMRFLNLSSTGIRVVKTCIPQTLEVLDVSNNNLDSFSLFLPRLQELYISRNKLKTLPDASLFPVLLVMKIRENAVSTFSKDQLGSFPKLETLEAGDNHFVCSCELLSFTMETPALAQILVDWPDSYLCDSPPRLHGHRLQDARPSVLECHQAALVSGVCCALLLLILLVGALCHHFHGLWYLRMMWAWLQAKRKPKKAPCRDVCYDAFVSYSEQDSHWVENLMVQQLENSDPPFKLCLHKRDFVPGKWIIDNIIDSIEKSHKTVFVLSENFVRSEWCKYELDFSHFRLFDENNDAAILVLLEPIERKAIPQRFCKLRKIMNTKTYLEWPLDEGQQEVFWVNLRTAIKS

- Effect of TLR6DN on stimulus-induced TNF-α production (in words) ([1]; compared with stimulation by LPS): inhibited to a much greater extent
- % inhibition of TNF-α production (TLR6DN) ([1]; stimulus 3 μM): 70.9%
- Fold increase in TNF-α production over control, TLR7 ([2]; RAW 264.7 overexpressing TLR7, 0.0004 μM): 14.8 fold
- Fold increase in TNF-α production over control, TLR7 ([2]; RAW 264.7 overexpressing TLR7, 0.001 μM): 8.9 fold
- Fold increase in TNF-α production over control, TLR7 ([2]; RAW 264.7 overexpressing TLR7, 0.004 μM): 5.8 fold
- Fold increase in TNF-α production over control, TLR7 ([2]; RAW 264.7 overexpressing TLR7, 0.012 μM): 3.8 fold
- Fold increase in TNF-α production over control, TLR7 ([2]; RAW 264.7 overexpressing TLR7, 0.037 μM): 3.5 fold
- Fold increase in TNF-α production over control, TLR7 ([2]; RAW 264.7 overexpressing TLR7, 1 μM): 1.3 fold
- Fold increase in TNF-α production over control, TLR7 ([2]; RAW 264.7 overexpressing TLR7, 3 μM): 1.0 fold
- Fold increase in TNF-α production over control, TLR7 ([2]; RAW 264.7 overexpressing TLR7, 10 μM): 1.5 fold
- TLR7 agonist character (in words) ([2]; from TLR7 overexpression in RAW 264.7 cells): agonist
Compound: CCOCc1nc2c(N)nc3ccccc3c2n1CC(C)(C)O [Resiquimod, 4-amino-2-ethoxymethyl-α,α-dimethyl-1H-imidazo[4,5-c]quinoline-1-ethanol]
